Data as given in patent US8053583B2, “Anti-cancer compound and manufacturing method thereof” (National Defense Medical Center, priority 2008, dated 2011).

How the values were obtained:
[1] = test system: GBM 8401 (human brain glioblastoma) cells; experiment: MTT colorimetric assay, GBM 8401 cells; conditions: conc. 10 μM; 46 hours with drug, then 2 hours MTT; ratio to control group without drug
Excerpt: (§1) MTT (tetrazole) assay used to determine tumor viability is based on measurement of the activity of dehydrogenase to determine cell growth conditions. In live cells, dehydrogenase in active mitochondria converts yellow MTT [3-(4,5-dimethylthiazol-2-yl)-2,5-diphenyltetra zolium bromide] into purple formazan on the reductive cleavage of its tetrazolium ring. The formazan crystal is examined under the microscope. While the mitochondria in dead cells are without active dehydrogenase, no crystal is generated and the color remains yellow. After adding MTT into cell cultures and reacting for 2 hours, the amount of generated formazan precipitate is proportional to total amount of dehydrogenase. Removing the culture medium, add DMSO to dissolve the purple formazan precipitate. Then measure the absorbance of the precipitate by is measured by the spectrophotometer at 560/670 nm so as to learn inhibition effect of drugs acted on normal cells and tumor cells.
(§2) GBM 8401, GBM 8901 (human brain glioblastoma) and SVG p12 (human brain astroglia)cells line are selected to be used in 96 well petri dishes. Each well is filled into the same amount of cells-about 5000 cells per well. After being cultured for 24 hours and cells anchor/attach, the 96 wells are divided into two groups-an experimental group and a control group containing no samples. The samples are diluted into 10 μg/mL by culture medium. Take 200 μL of each sample and add into the experimental group and the control group is added with 200 μL culture medium without samples. After 46 hours of culture, each well is added with 10 μL MTT solution, incubate cells at 37° C., 5% CO2 for 2 hours.
(§3) Then each well is added with 100 μL, dissolving formazan. Shaking for 10 minutes and measure the absorbance at 560/670 nm of the sample by the spectrometer. The data of the experimental group is divided by the data of the control group to get the estimated cell viability.
(§4) Three cell lines-GBM 8401, GBM 8901, SVG p12 (normal) are used in cytotoxicity tests of 1,8-bis-substituted amidoanthraquinone. After reacting with the drug for 46 hours, the cells are reacted with certain amount of MTT solution. After 2 hours, DMSO is used to dissolve formazan and O.D. (optical density) at 560/670 nm is measured. Then calculate the radios of the experimental groups (with drugs) to the control groups (without drugs).

[2] = test system: GBM 8901 (human brain glioblastoma) cells; experiment: MTT colorimetric assay, GBM 8901 cells; conditions: 46 hours with drug, then 2 hours MTT, ratio to control group without drug
Excerpt: as §1, §2, §3, §4

[3] = test system: SVG p12 (human brain astroglia) cells; experiment: MTT colorimetric assay, normal SVG p12 cells; conditions: conc. 10 μM, 46 hours with drug, then 2 hours MTT, ratio to control group without drug
Excerpt: as §1, §2, §3, §4

COC(=O)[C@H](C)NCC(=O)Nc1cccc2c1C(=O)c1c(NC(=O)CN[C@H](C)C(=O)OC)cccc1C2=O [Compound 3h, (L)-1,8-Bis[2-(alalinemethyl ester)acetamido]anthraquinone]
Cell viability (%) GBM 8401 [1]: 158 ± 3% | viability at 10 µM ([2]; Homo sapiens, read-out: Cell viability (%) GBM 8901, conc. 10 μM): 100 ± 24% | Cell viability (%) SVG p12 [3]: 128 ± 34%

COC(=O)[C@H](NCC(=O)Nc1cccc2c1C(=O)c1c(NC(=O)CN[C@@H](C(=O)OC)C(C)C)cccc1C2=O)C(C)C [Compound 3e, (D)-1,8-Bis[2-(valinemethyl ester)acetamido]anthraquinone]
Cell viability (%) GBM 8401 [1]: 153 ± 32% | Cell viability (%) GBM 8901 ([2]; conc. 10 μM): 88 ± 10% | Cell viability (%) SVG p12 [3]: 138 ± 10%
